Values of other authors in PubChem BioAssay AID1259409 (Chemical Carcinogenesis Research Information System (CCRIS), 2018).

Tested on: rodent chemically induced tumor inhibition, incidence and multiplicity
Assay: CCRIS tumor inhibitor studies

For `CC(C(=O)O)c1ccc(-c2ccccc2)c(F)c1` (stereo not given), the “tumour outcome (control, treated, inhibition, significance)” value (Carcinogen: N-METHYL-N-NITROSOUREA, 684-93-5, Dose [Inhibitor]: 31.25 MG/KG DIET DAILY STARTING 1 WK AFTER CARCINOGEN ADMINISTRATION AND CONTINUING THROUGH THE END OF THE STUDY (STUDY, Route [Inhibitor]: ORAL, Species: RAT, Strain/Sex: SPRAGUE-DAWLEY/FEMALE, Target Tissue: Type of Lesion: MAMMARY GLAND: CARCINOMA, Dose [Carcinogen]: 25 MG/KG BW ONCE, Promoter: NONE USED) is listed as 91%, 60%, 34%, p<0.05, the “tumour outcome (control, treated, inhibition, significance)” value (Carcinogen: N-METHYL-N-NITROSOUREA, 684-93-5, Dose [Inhibitor]: 31.25 MG/KG DIET DAILY STARTING 1 WK AFTER CARCINOGEN ADMINISTRATION AND CONTINUING THROUGH THE END OF THE STUDY (STUDY, Route [Inhibitor]: ORAL, Species: RAT, Strain/Sex: SPRAGUE-DAWLEY/FEMALE, Target Tissue: Type of Lesion: MAMMARY GLAND: CARCINOMA, Dose [Carcinogen]: 50 MG/KG BW ONCE, Promoter: NONE USED) is listed as 100%, 100%, 0%, not significant and the “tumour outcome (control, treated, inhibition, significance)” value (Carcinogen: N-METHYL-N-NITROSOUREA, 684-93-5, Dose [Inhibitor]: 31.25 MG/KG IN DIET STARTING 1 WK AFTER CARCINOGEN DOSE AND CONTINUING THROUGH THE END OF THE STUDY (STUDY DURATION: 180, Route [Inhibitor]: ORAL, Species: RAT, Strain/Sex: SPRAGUE-DAWLEY/FEMALE, Target Tissue: Type of Lesion: MAMMARY GLAND: CARCINOMA, Dose [Carcinogen]: 25 MG/KG BW ONCE, Promoter: NONE USED) is listed as 91%, 60%, 34%, p<0.05. For the same compound, the “tumour outcome (control, treated, inhibition, significance)” value (Carcinogen: N-METHYL-N-NITROSOUREA, 684-93-5, Dose [Inhibitor]: 31.25 MG/KG IN DIET STARTING 1 WK AFTER CARCINOGEN DOSE AND CONTINUING THROUGH THE END OF THE STUDY (STUDY DURATION: 180, Route [Inhibitor]: ORAL, Species: RAT, Strain/Sex: SPRAGUE-DAWLEY/FEMALE, Target Tissue: Type of Lesion: MAMMARY GLAND: CARCINOMA, Dose [Carcinogen]: 50 MG/KG BW ONCE, Promoter: NONE USED) was 100%, 100%, 0%, not significant, the “tumour outcome (control, treated, inhibition, significance)” value (Carcinogen: N-METHYL-N-NITROSOUREA, 684-93-5, Dose [Inhibitor]: 62.5 MG/KG DIET DAILY STARTING 1 WK AFTER CARCINOGEN ADMINISTRATION AND CONTINUING THROUGH THE END OF THE STUDY (STUDY D, Route [Inhibitor]: ORAL, Species: RAT, Strain/Sex: SPRAGUE-DAWLEY/FEMALE, Target Tissue: Type of Lesion: MAMMARY GLAND: CARCINOMA, Dose [Carcinogen]: 25 MG/KG BW ONCE, Promoter: NONE USED) was 91%, 68%, 25%, p<0.1 and the “tumour outcome (control, treated, inhibition, significance)” value (Carcinogen: N-METHYL-N-NITROSOUREA, 684-93-5, Dose [Inhibitor]: 62.5 MG/KG DIET DAILY STARTING 1 WK AFTER CARCINOGEN ADMINISTRATION AND CONTINUING THROUGH THE END OF THE STUDY (STUDY D, Route [Inhibitor]: ORAL, Species: RAT, Strain/Sex: SPRAGUE-DAWLEY/FEMALE, Target Tissue: Type of Lesion: MAMMARY GLAND: CARCINOMA, Dose [Carcinogen]: 50 MG/KG BW ONCE, Promoter: NONE USED) was 100%, 100%), 0%, not significant. For the same compound, the “tumour outcome (control, treated, inhibition, significance)” value (Carcinogen: N-METHYL-N-NITROSOUREA, 684-93-5, Dose [Inhibitor]: 62.5 MG/KG IN DIET STARTING 1 WK AFTER CARCINOGEN DOSE AND CONTINUING THROUGH THE END OF THE STUDY (STUDY DURATION: 180, Route [Inhibitor]: ORAL, Species: RAT, Strain/Sex: SPRAGUE-DAWLEY/FEMALE, Target Tissue: Type of Lesion: MAMMARY GLAND: CARCINOMA, Dose [Carcinogen]: 25 MG/KG BW ONCE, Promoter: NONE USED) was 91%, 68%, 25%, p<0.1 and the “tumour outcome (control, treated, inhibition, significance)” value (Carcinogen: N-METHYL-N-NITROSOUREA, 684-93-5, Dose [Inhibitor]: 62.5 MG/KG IN DIET STARTING 1 WK AFTER CARCINOGEN DOSE AND CONTINUING THROUGH THE END OF THE STUDY (STUDY DURATION: 180, Route [Inhibitor]: ORAL, Species: RAT, Strain/Sex: SPRAGUE-DAWLEY/FEMALE, Target Tissue: Type of Lesion: MAMMARY GLAND: CARCINOMA, Dose [Carcinogen]: 50 MG/KG BW ONCE, Promoter: NONE USED) was 100%, 100%, 0%, not significant.
For `C/C=C(/C)C(=O)OC1c2c(ccc3ccc(=O)oc23)OC(C)(C)C1OC(=O)/C(C)=C\C` (stereo not given), the “tumour outcome (control, treated, inhibition, significance)” value (Carcinogen: 7,12-DIMETHYLBENZ[A]ANTHRACENE, 57-97-6, Dose [Inhibitor]: 10 UMOL APPLIED 40 MINUTES PRIOR TO PROMOTER DOSE (STUDY DURATION: 20 WK), Route [Inhibitor]: DERMAL, Species: MOUSE, Strain/Sex: ICR/FEMALE, Target Tissue: Type of Lesion: SKIN: PAPILLOMA, Dose [Carcinogen]: 100 UG ONCE) is listed as 100%, 0%, 100%, not calculated.
In the case of `CC(O)CCC(=O)c1cccnc1` (stereo not given), the “tumour outcome (control, treated, inhibition, significance)” value (Carcinogen: 4-(METHYLNITROSAMINO)-1-(3-PYRIDYL)-1-BUTANONE, 64091-91-4, Dose [Inhibitor]: 0, 25 UMOL IN 0.1 ML CORN OIL ONCE 2 HR PRIOR TO CARCINOGEN DOSE (STUDY DURATION: 16 WK), Route [Inhibitor]: GAVAGE, Species: MOUSE, Strain/Sex: STRAIN-A/FEMALE, Target Tissue: Type of Lesion: LUNG: ADENOMA, Dose [Carcinogen]: 10 UMOL IN 0.1 ML SALINE ONCE, Promoter: NONE USED) is listed as 100%, 100%, 0%, not significant.
